# Test results from patent US20100056623A1, “FUMAGILLOL DERIVATIVES OR METHOD FOR PREPARATION OF FUMAGILLOL DERIVATIVES, AND PHARMACEUTICAL COMPOSITIONS COMPRISING THE SAME” (CHONG KUN DANG PHARMACEUTICAL CORP., priority 2005, published 2010).
# Like-named read-outs stand apart in the source and are kept apart here.
# Legend:
# [1] = tested on: CPAE (calf pulmonary artery endothelial cell); experiment: Inhibiting activity on cell proliferation, SRB analysis (CPAE); format: cell-based; conditions: for IC50: CPAE cells, 3 days with drug, SRB, read-out: IC50 (nM) CAPE; for Selectivity Index (L5178Y/CAPE): IC50 L5178Y / IC50 CPAE
# Description: (§1) In order to compare the safety index (SI) of CPAE (calf pulmonary artery endothelial cell) with that of HUVEC (human umbilical vein endothelial cell), L5178Y lymphoma that was isolated from murine thymus was used. The safety index was defined as IC50 ratio of L5178Y against CPAE (IC50L5178Y/IC50CPAE). All cell lines, which had been kept in liquid nitrogen tank, were used after being thawed and subcultured 2˜3 times in T-flask. CPAE, HUVEC and L5178Y were cultured in MEM culture medium (20% FBS, 50˜100 μg/ml ECGS, 0.15% baking soda, 0.05 mg/ml gentamicin), M199 culture medium (20% FBS, 0.22% baking soda, 100 μg/ml heparin, 3 ng/ml bFGF, 0.05 mg/ml gentamicin) and RPMI 1640 culture medium (10% FBS, 0.2% baking soda, 0.05 mg/ml gentamicin), respectively, under the condition of 37° C. and 5% CO2.
# (§2) The drug was prepared by being gradationally diluted to two or ten times by using PBS, 20 μl of the solution was added to each well of 96 well plate in triplicate. The cell, which is being incubated, was treated with trypsin to give cell suspension. The number of cell thereafter was counted. And 180 μl of the solution was inoculated to each well and cultured.
# (§3) The cell was cultured with drugs for 3 days and then 50 μl of 50% TCA was added thereto (final concentration 10%). Subsequently the cell was fixed by being left alone at 4° C. for 1 hour. The well was washed 4 times by distilled water and then dried. After that 100 μl of SRB (Sulforhodamine B, Sigma Chemical Co.) solution (0.4% w/v in 1% acetic acid) was added thereto and then it was left alone at ordinary temperature for 30 minutes. Thereafter the well was washed 4 times by 1% acetic acid and dried. And then after adding 200 μl of 10 mM tris buffer, the absorbance at 570 nm was measured by automatic microplate reader (Model: Elx 808, Bio-Tek Instrument, INC). The viability was calculated from the ratio of the absorbance of the control to which drugs were not added and the well to which drugs were added.
# [2] = tested on: HUVEC (human umbilical vein endothelial cell); experiment: Inhibiting activity on cell proliferation, SRB analysis (HUVEC); format: cell-based; conditions: HUVEC cells, 3 days with drug
# Description: as §1, §2, §3
# [3] = Chemical stability test (HPLC purity); conditions: for 1 month Other peaks (%) / 1 month Parent peak (%) / Initial Other peaks (%) / Initial Parent peak (%): HPLC; for 1 month Other peaks (%) / 1 month Parent peak (%): air-tight vessel; for change of purity (%): initial vs 1 month at 40±2° C.
# Description: Each compound of the present invention was kept in an air-tight vessel for 1 month at 40±2° C. and 75±5% of relative humidity. Thereafter the HPLC purity test was executed.
# 25 mL of the solution was precisely taken, and poured into 100 mL volumetric flask. Acetonitrile/20 mM ammonium acetate aqueous solution (50:50) was added thereto to be the total volume of 100 ml. The solution was filtrated, and the filtrate was used as a test liquid.
# (2) Operational Condition of Instrument. • Column: Kromasil®C18 (UG 100 Å, 5 μm, 4.6 mm Φ×250 mm) • Column temperature: 30° C. • Mobil phase: 20 mM ammonium acetate (pH 4.2) buffer:acetonitrile (55:45) • Injection volume: 20 μL • Flow rate: 1.2 mL/min • Detector: UV light-absorption Spectrophotometer (detection wavelength: 306 nm)
# Solubility test = format: physicochemical; conditions: ordinary temperature
# Description: To a constant amount (400 mg) of each compounds of present invention, a constant amount of demineralized water, methanol and ethanol were added separately, and the solution was stirred at ordinary temperature.
# L5178Y lymphoma = experiment: Inhibiting activity on cell proliferation, MTT analysis (L5178Y); format: cell-based, murine; conditions: L5178Y lymphoma cells, 3 days with drug
# Description: as §1, §2
# The tumor cell was cultured with drugs for 3 days and then 50 μl of MTT (3-(4,5-dimethylthiazole-2-yl)-2,5-diphenyl tetrazolium bromide, Sigma Chemical Co.) solution (2.5 mg/ml in PBS) was added thereto. And it was further cultured for 4 hours at 37° C. Culture medium was removed carefully. And after dissolving formazan crystal by adding 150 μl of DMSO, the absorbance at 570 nm was determined.
# [4] = Bos taurus, Endothelial cell, 72 h
# [5] = 1 month at 40±2° C., 75±5% relative humidity
Structure (SMILES),"IC50 [1, 4] [nM]",Selectivity Index (L5178Y/CAPE) [1],"IC50 ([2]; Homo sapiens, 72 h) [nM]","change of purity (in words) [3, 5]","chemical stability compared to known compounds [3, 5]","1 month Other peaks (%) [3, 5] [%]","1 month Parent peak (%) [3, 5] [%]",Initial Other peaks (%) [3] [%],Initial Parent peak (%) [3] [%],change of purity (%) ([3]; 75±5% relative humidity),"The amount of solvent to dissolve 1 g of the compounds (ml), demineralized water (Solubility test) [mL]","The amount of solvent to dissolve 1 g of the compounds (ml), ethanol (Solubility test) [mL]","The amount of solvent to dissolve 1 g of the compounds (ml), methanol (Solubility test) [mL]","IC50 (L5178Y lymphoma; Mus musculus, 72 h) [nM]",IC50 [1] [nM],IC50 [2] [nM],IC50 (L5178Y lymphoma) [nM]
"COc1ccc(/C=C/C(=O)O[C@@H]2CC[C@]3(CO3)[C@@H]([C@@]3(C)O[C@@H]3CC=C(C)C)[C@@H]2OC)cc1OCCO [Example 4, O-(3-(2-hydroxyethoxy)-4-methoxycinnamoyl)fumagillol]",0.006,4.53 × 10^6,0.00376,hardly showed a change of purity,"more excellent chemical stability than TNP-470, CKD-732 and CKD-731",1.5,98.5,1.3,98.7,0.2,145,65,49,27300,,,
"CO[C@@H]1[C@H](OC(=O)/C=C/c2cccc(NCCO)c2)CC[C@]2(CO2)[C@H]1[C@@]1(C)O[C@@H]1CC=C(C)C [Example 6, O-(3-(2-hydroxyethylamino)cinnamoyl)fumagillol]",0.0071,3.88 × 10^6,0.00222,,"more excellent chemical stability than TNP-470, CKD-732 and CKD-731",1.9,98.1,1.4,98.6,0.5,130,58,31,27700,,,
"CO[C@@H]1[C@H](OC(=O)/C=C/c2cccc(NCCOCCO)c2)CC[C@]2(CO2)[C@H]1[C@@]1(C)O[C@@H]1CC=C(C)C [Example 17, O-(3-(2-hydroxyethoxyethylamino)cinnamoyl)fumagillol]",0.049,6.26 × 10^5,0.00302,,,,,,,,,,,30700,,,
"CO[C@@H]1[C@H](OC(=O)/C=C/c2ccc(NCCO)cc2)CC[C@]2(CO2)[C@H]1[C@@]1(C)O[C@@H]1CC=C(C)C [Example 5, O-(4-(2-hydroxyethylamino)cinnamoyl)fumagillol]",0.0061,1.16 × 10^6,0.00104,,"more excellent chemical stability than TNP-470, CKD-732 and CKD-731",1.5,98.5,0.8,99.2,0.7,132,60,39,7110,,,
"CO[C@@H]1[C@H](OC(=O)/C=C/c2ccc(OCCCCCO)cc2)CC[C@]2(CO2)[C@H]1[C@@]1(C)O[C@@H]1CC=C(C)C [Example 23, O-(4-(5-hydroxypentoxy)cinnamoyl)fumagillol]",0.0467,1.98 × 10^5,0.0057,,,,,,,,,,,9250,,,
"CO[C@@H]1[C@H](OC(=O)/C=C/c2ccc(OCCCCCCO)cc2)CC[C@]2(CO2)[C@H]1[C@@]1(C)O[C@@H]1CC=C(C)C [Example 25, O-(4-(6-hydroxyhexyloxy)cinnamoyl)fumagillol]",0.124,1.70 × 10^5,0.0015,,,,,,,,,,,21100,,,
"CO[C@@H]1[C@H](OC(=O)/C=C/c2ccc(Oc3ccc(CO)cc3)cc2)CC[C@]2(CO2)[C@H]1[C@@]1(C)O[C@@H]1CC=C(C)C [Example 8, O-(4-(4-hydroxymethylphenoxy)cinnamoyl)fumagillol]",0.857,7.03 × 10^4,0.00456,,,,,,,,,,,60200,,,
"CO[C@@H]1[C@H](OC(=O)C=Cc2ccc(OCCN(C)C)cc2)CC[C@]2(CO2)[C@H]1[C@@]1(C)O[C@@H]1CC=C(C)C [CKD-732, O-(4-dimethylaminoethoxycinnamoyl)fumagillol, reference compound]",,1.35 × 10^4,,,,4.6,95.4,0.8,99.2,3.8,1100,219,197,,0.648,0.0066,8720
"CO[C@@H]1[C@H](OC(=O)/C=C/c2ccc(Cl)c(NCCOCCO)c2)CC[C@]2(CO2)[C@H]1[C@@]1(C)O[C@@H]1CC=C(C)C [Example 18, O-(4-chloro-3-(2-hydroxyethoxyethylamino)cinnamoyl)fumagillol]",0.045,9.31 × 10^5,0.0019,,,,,,,,,,,41900,,,
"CO[C@@H]1[C@H](OC(=O)/C=C/c2ccc(NCCOCCO)cc2)CC[C@]2(CO2)[C@H]1[C@@]1(C)O[C@@H]1CC=C(C)C [Example 16, O-(4-(2-hydroxyethoxyethylamino)cinnamoyl)fumagillol]",0.041,2.31 × 10^5,0.0022,,,,,,,,,,,9490,,,
"CO[C@@H]1[C@H](OC(=O)/C=C/c2ccc(Cl)c(NCCO)c2)CC[C@]2(CO2)[C@H]1[C@@]1(C)O[C@@H]1CC=C(C)C [Example 7, O-(4-chloro-3-(2-hydroxyethylamino)cinnamoyl)fumagillol]",0.0065,4.77 × 10^6,0.0017,,"more excellent chemical stability than TNP-470, CKD-732 and CKD-731",1.1,98.9,0.6,99.4,0.5,137,67,42,31000,,,
"CO[C@@H]1[C@H](OC(=O)NC(=O)CCl)CC[C@]2(CO2)[C@H]1[C@@]1(C)O[C@@H]1CC=C(C)C [TNP-470, O-chloroacetylcarbamoylfumagillol, reference compound]",0.449,3.85 × 10^3,0.00896,,,3.5,96.5,1.3,98.7,2.2,876,250,208,4300,,,
"CO[C@@H]1[C@H](OC(=O)/C=C/c2ccc(OCCCCCCO)c(C(F)(F)F)c2)CC[C@]2(CO2)[C@H]1[C@@]1(C)O[C@@H]1CC=C(C)C [Example 26, O-(3-trifluoromethyl-4-(6-hydroxyhexyloxy)cinnamoyl)fumagillol]",0.677,1.48 × 10^4,0.0019,,,,,,,,,,,9990,,,
